Assay results published in paper PMC7239831, “Suitability of Artificial Membranes in Lipolysis-Permeation Assays of Oral Lipid-Based Formulations” (Pharmaceutical Research, 2020).

Tests used:
[1] = Integrity assay with static digest matrix (LY mass transfer); assay type: in vitro ADME; settings: GIT-0 membranes
Protocol: Six samples of 4 ml were taken during dispersion and digestion phases of single-compartment in vitro lipolysis (Fig. 1a) of a formulation over a period of 40 min. The formulation was of type IIIB-MC (medium chain length triglyceride component, 8–10 carbons) according to the Lipid Formulation Classification System (LFCS) ([27]), see Table I for composition. […] To visualize membrane integrity, Lucifer Yellow (LY) in DMSO solution was added to each sample to a final LY concentration of 10 μM and 0.1% DMSO. LY is highly hydrophilic; its permeation through intact lipid membranes should therefore be negligible. The sample tubes were then vortexed, and shaken at 450 rpm at 37°C until further use.
Digestion samples were dispensed (1.2 ml) into the donor compartments of Transwell inserts treated to form artificial membranes. Negative controls comprised only blank digestion medium or lipolysis buffer (both containing LY, 10 μM) in the donor compartment. Positive controls were untreated inserts composed of naked polycarbonate filters, or GIT-0 solution added to pre-wet filters (disrupts membrane formation). The receiver compartments contained 2 ml of either plain phosphate buffer (PB, 10 mM), Acceptor Sink Buffer (20 mM HEPES, 1% w/v SDS), or PB supplemented with 4% w/w bovine serum albumin (BSA). All receiver buffers were adjusted to pH 7.40.
From examination of mass transfer profiles, membrane damage was evaluated by Area Under the Curve (AUC) values of LY mass transfer over time. The criteria were that an LY AUC > 10 nmol min cm^−2 was considered to indicate major membrane disruption, while an LY AUC < 1 nmol min cm^−2 was considered to indicate an intact membrane.
LY presence was detected using fluorescence (Spark or Safire^2 plate readers, Tecan, Austria) at 428 and 536 nm wavelength for excitation and emission, respectively. Samples were diluted 1:2 in ice-cold acetonitrile and centrifuged (4°C, 2465 g for 20 min) to precipitate protein content.

[2] = Integrity assay under dynamic digestion conditions (LY mass transfer); assay type: in vitro ADME; settings: LiDo on PVDF; up to two hours
Protocol: HDM, GIT-0 and LiDo membranes were subjected to in situ lipolysis of the IIIB-MC LBF in a 6-well culture plate format. Transwell inserts (diameter of 24 mm) were used for polycarbonate filters, and inserts were made in-house to hold the PVDF filters (diameter of 25 mm). For these lipolysis experiments, a modified digestion medium with greater buffering capacity was used. The digestion medium contained 200 mM Tris-maleate in these experiments to maintain pH within 0.3 units of the initial value of the lipolysis buffer (pH 6.5) over one hour of digestion (Table S2, Supplementary Material), since no autotitration could be used in the setup. LBF was weighed into a glass tube, and 10 ml of this modified digestion medium spiked with 10.3 μl of LY in DMSO solution (10 mM) was added and vortexed. […]
GIT-0 and LiDo membranes were also evaluated in a large-scale (75 mm diameter) in-house developed lipolysis-permeation device named “ENA” ([19]) in order to explore whether these two lipid mixtures with theoretically similar compositions and production methods also yielded similar results. […]
LY presence was detected using fluorescence (Spark or Safire^2 plate readers, Tecan, Austria) at 428 and 536 nm wavelength for excitation and emission, respectively. […]

Caco-2 monolayer = test: Caco-2 based lipolysis-permeation assay in ENA (data re-analyzed from Keemink et al.); settings: average over formulations
[3] = In vitro lipolysis-permeation assay of fenofibrate-loaded LBFs in the ENA device (porcine pancreatin); assay type: in vitro ADME
Protocol: Three formulations representing LFCS types IIIA-MC, IIIA-LC (long chain fatty acid component), and type IV (Table I) were assayed for their performance using artificial membranes in the ENA device. No more than one week before the assay, excipients were heated to 37°C before being weighed into a glass vial. The vial was capped with argon, vortexed, and then shaken overnight (450 rpm, 37°C). The formulations were then loaded with fenofibrate (80 mg/g) in the same manner, and shaken until complete dissolution.
The loaded formulations were weighed separately and then dispensed into ENA donor compartments (Fig. 1b) that had been prefilled with digestion medium spiked with LY to 10 μM (0.1% DMSO). Samples were taken from both compartments during dispersion (0–10 min) and digestion (10–100 min). Samples from the donor compartment were immediately filtered through a hydrophilic nylon syringe filter (Whatman PuraDisc 13, pore size 0.1 μm) to separate precipitates and oil droplets from fenofibrate in free solution and in colloidal aggregates, using the same procedures as those described in Juenemann et al. and Stillhart et al. ([28],[29]). The syringe filters were then flushed through with room temperature acetonitrile to recover precipitated fenofibrate. […] Phases were instead separated through centrifugation (37°C, 21,000 g for 15 min) for these samples. Receiver compartment samples were then quantified using UPLC-MS, and donor samples using HPLC-UV.
Fenofibrate was analyzed using a UV-DAD coupled HPLC (1290 Infinity, Agilent Technologies) with a Zorbax Eclipse XDB-C18 column (4.6 × 100 mm, Agilent Technologies) kept at 40°C (injection volume 20 μl). The mobile phase consisted of sodium acetate buffer (25 mM, pH 5.0) in acetonitrile solution (2:8 v/v) with isocratic flow (1 ml/min). UV absorbance was monitored at a wavelength of 287 nm. The retention time was 3.32 min. Sample preparation consisted of 100x dilution in mobile phase and a centrifugation step (21,000 g, 15 min, 25°C) to purify the matrix. […]

[4] = set-up: method as in PMID 23500116, doi:10.1016/j.jddst.2016.06.013, PMID 28826878; settings: cited from earlier work

## Lucifer Yellow CH dilithium salt [LY]
[1]; Fig. 2c, Acceptor Sink Buffer in receiver per legend, 30 min digestion sample
  LY mass transfer AUC15-60 min: < LOQ
[1]; Fig. 2c, Acceptor Sink Buffer in receiver per legend, dispersion sample of IIIB-MC LBF
  LY mass transfer AUC15-60 min: < LOQ
[1]; Fig. 2d, PB with 4% BSA in receiver per legend, 30 min digestion sample
  LY mass transfer AUC15-60 min: < LOQ
[1]; Fig. 2d, PB with 4% BSA in receiver per legend, dispersion sample of IIIB-MC LBF
  LY mass transfer AUC15-60 min: < LOQ
[2]
  LY permeation through membrane: did not allow detectable levels

## CC(C)OC(=O)C(C)(C)Oc1ccc(C(=O)c2ccc(Cl)cc2)cc1 [fenofibrate]
Caco-2 monolayer
  Caco-2 permeability relative to LiDo after adjusting for filter porosity (ε): 1.8 fold
Caco-2 monolayer; uncorrected Papp
  Ratio between Caco-2 and LiDo permeability: 0.42
[3]; based on expected permeability in human small intestine
  Expected flux in vivo relative to flux over LiDo/Caco-2: 10 fold
[3]; under comparable conditions, average, Permeapad data ref 40
  Flux of fenofibrate over LiDo relative to flux of cinnarizine over Permeapad: 334 fold
[4]
  Permeability (in words): highly permeable

## CC(C)(Oc1ccc(C(=O)c2ccc(Cl)cc2)cc1)C(=O)O [fenofibric acid]
[3]; UPLC-MS, all samples
  Detection of fenofibric acid (control of API degradation during lipolysis and sample storage): no fenofibric acid could be detected
